Data reported in publication PMC9551036, “A selective and orally bioavailable VHL-recruiting PROTAC achieves SMARCA2 degradation in vivo” (Nature Communications, 2022).
Values after ≈ are worked out from the molar mass of the structure shown. Values joined by “and” are separate entries in the source; they are usually repeats but may differ in a detail not shown here. Identical values can stand only once. Like-named read-outs stand apart in the source and are kept apart here.

Assays:
[1] = target: T1, SMARCA2^BD (Homo sapiens, UniProt P51531); assay: SPR binding to immobilised SMARCA2 bromodomain; conditions: benzoxazinone lead series, Fig. 1b; read-out: SMARCA2^BD SPR KD
T1 construct: P51531-2, residues 1373-1493 with additional N-terminal SM residues; GST (TEV site) (N, cleaved yes); made in house; host or cells: Escherichia coli BL21(DE3)
Description: SMARCA4^BD was provided by the Structural Genomics Consortium (SGC), Toronto[32] and SMARCA2^BD and PRM1^BD5 were synthesised by GeneArt then subcloned into pDEST15 vectors (Invitrogen). The VCB complex was expressed and purified as described previously, with the modification that 0.3 mM IPTG was used for induction of expression. […] Both were stored in 20 mM 4-(2-hydroxyethyl)−1-piperazineethanesulfonic acid (HEPES), 150 mM sodium chloride and 1 mM tris(2-carboxyethyl)phosphine (TCEP) pH 7.5. SMARCA2^BD, SMARCA4^BD and PBRM1^BD5 were expressed in Escherichia coli BL21(DE3) as N-terminal GST fusion proteins with a TEV protease cleavage site. Expression and purification of these proteins has been described previously[32],[33]. Starter cultures were grown overnight at 37 °C in 10 mL of Luria-Bertani (LB) medium with ampicillin (100 μg/mL). The starter cultures were diluted (1:100) in Terrific Broth (TB) medium with ampicillin (100 μg/mL) and grown in a shaking incubator at 37 °C to an optical density (OD600) ~1 before the temperature was lowered for induction (to 23 °C for SMARCA2^BD or 18 °C for SMARCA4^BD and PRRM1^BD5). […] Cells were harvested by centrifugation and stored at −80 °C prior to purification. […] The Lysis buffers were as follows: for SMARCA2^BD: 50 mM HEPES, 500 mM sodium chloride, 5% glycerol, 5 mM dithiothreitol (DTT); for SMARCA4^BD: 25 mM HEPES, 0.3 M sodium chloride, 5% glycerol, 10 mM DTT, pH 7.5; for PBRM1^BD5: 25 mM HEPES, 300 mM sodium chloride, 5% glycerol, 10 mM DTT, pH 7.8; in each case supplemented with complete protease inhibitors (Roche). Affinity purification was performed using Glutathione Sepharose 4B (GE Healthcare) in batch mode or on-column. […] For SMARCA2^BD, prior to TEV protease cleavage the eluted GST-tagged BD was first dialysed into desalting buffer (20 mM HEPES, 250 mM sodium chloride, pH 7.0 + 0.5% glycerol). Where TEV cleavage was performed in solution, a second affinity (GST-trap) column purification step was carried out to remove the GST-tag and uncleaved GST-tagged protein. Proteins were further purified by SEC (HiLoad Superdex-75, 16/600) (GE Healthcare) and stored in Storage buffer (for SMARCA2^BD: 20 mM HEPES, 150 mM sodium chloride, pH 7.5; for SMARCA4^BD: 10 mM HEPES, 0.5 M NaCl, 5% glycerol, pH 7.5; for PBRM1^BD5: 20 mM HEPES, 300 mM NaCl, 5 mM DTT, pH 7.8). For AlphaScreen assays, eluted GST-tagged BDs were purified directly by SEC in the respective storage buffers without TEV cleavage. All chromatography purification steps were performed either at room temperature or 4 °C using an ÄKTA FPLC purification system (GE Healthcare) or a plastic Econo-Pac column (Bio-Rad).
SPR data were acquired on Biacore 8K or T200 instruments (Cytiva). Target proteins were immobilised at 25 °C on CM5 chips by amine coupling (EDC/NHS, Cytiva) in HBS-P+ running buffer (pH 7.4), containing 2 mM TCEP. […] The reference surface was subsequently deactivated using 1 M ethanolamine. […] Biotinylated VCB was prepared as previously described[27]: in brief, the complex was mixed 1:1 with EZ-Link NHS–PEG4–biotin (Thermo Scientific) and incubated at room temperature for 1 h. Unreacted NHS-biotin was removed using a PD-10 desalting column (Cytiva) into 20 mM HEPES, pH 7.5, 150 mM sodium chloride and 1 mM DTT. The reference surface was generated by deactivating the EDC/NHS-treated surface with 1 M ethanolamine. All interaction experiments were done at 6 °C in running buffer (20 mM TRIS, pH 8.3, 150 mM potassium chloride, 2 mM magnesium chloride, 2 mM TCEP, 0.005% TWEEN 20, 1% dimethyl sulfoxide). For ternary complex measurements, a sensor chip surface with VCB immobilised was used (preparation as described above). Experiments were run in dual-inject mode with 10 µM SMARCA present during the injection and dissociation phase. Sensorgrams from reference surfaces and blank injections were subtracted from the raw data prior to data analysis using Biacore Insight software.

[2] = target: VCB: PROTAC: SMARCA2^BD ternary complex (Homo sapiens, UniProt P40337+P51531); assay: TR-FRET ternary complex affinity and cooperativity, SMARCA2; format: binding; set-up: P51531-2, residues 1373-1493 with additional N-terminal SM residues; GST (TEV site) (N); His6 (TEV site) (N, cleaved yes); made in house; host or cells: SMARCA2^BD: Escherichia coli BL21(DE3)
[3] = Bidirectional permeability measurement in Caco-2 cells; format: in vitro ADME; conditions: human
Description: Bidirectional permeability of test compounds across a Caco-2 cell monolayer was measured as described[43] with a modification of preincubation time[44]: Briefly, Caco-2 cells were seeded onto Transwell inserts (#3379, Corning, Wiesbaden, Germany) at a density of 160000 cells/cm^2 and cultured in DMEM (high glucose) containing 10% fetal bovine serum for 14–21 days. Cells were incubated with culture media containing 1 µM test compound for 24 h. […] Samples were taken at different time points for up to 2 h. Test compound in the samples was quantified with LC-MS/MS. To elucidate the role of drug transporter P-gp in the transcellular transport, permeability measurement was performed in the absence and presence of the selective P-gp inhibitor zosuquidar (5 µM final concentration). Apparent permeability coefficients (Papp,AB, Papp,BA) were calculated as follows:1 Papp,AB=Q_AB/C0×s×t 2 Papp,BA=Q_BA/C0×s×t where Q is the amount of compound recovered in the receiver compartment after the incubation time t, C0 the initial compound concentration given to the donor compartment, and s the surface area of the Transwell inserts. Efflux ratio is calculated as the quotient of Papp,BA (mean of duplicate) to Papp,AB (mean of duplicate). […] In addition, Transepithelial electrical resistance (TEER) values were measured for each plate before the permeability assay. All three parameters (efflux of the reference substrates, Papp values of the low permeable compound, and TEER values) were used to ensure the quality of the assays.

[4] = Solubility testing; format: physicochemical; conditions: for solubility at 24 h: buffer, kinetic from dmso stock
Description: Dilution into a 1:1 mixture of acetonitrile and water was used as reference. After 24 h, the incubations were filtrated, and the filtrate was analyzed by LC-UV.

[5] = target: T2, VCB: PROTAC: SMARCA2^BD ternary complex (Homo sapiens, UniProt P51531); assay: TR-FRET ternary complex affinity and cooperativity, SMARCA2; format: binding
T2 construct: P51531-2, residues 1373-1493 with additional N-terminal SM residues; GST (TEV site) (N); His6 (TEV site) (N, cleaved yes); made in house; host or cells: SMARCA2^BD: Escherichia coli BL21(DE3)

[6] = system: VCB: PROTAC: SMARCA2^BD ternary complex; assay: as above; format: binding, human; conditions: ratio TR-FRET EC50 / TR-FRET EC50 +VCB measured in the same run, SMARCA2BD
[7] = Microsomal stability; format: in vitro ADME; conditions: for Mic. Stab. Human / Mic. Stab. Human QH: human liver microsomes; for Mic. Stab. Mouse / Mic. Stab. Mouse QH: mouse liver microsomes; for Mic. Stab. Rat / Mic. Stab. Rat QH: rat liver microsomes
Description: […] Reactions were terminated by addition of acetonitrile and precipitates separated by centrifugation. Compound concentrations in supernatants were measured by HPLC-MS/MS and clearance was calculated from compound half-lives using the well-stirred liver model.

T1 sequence (P51531 1373-1493 isoform P51531-2): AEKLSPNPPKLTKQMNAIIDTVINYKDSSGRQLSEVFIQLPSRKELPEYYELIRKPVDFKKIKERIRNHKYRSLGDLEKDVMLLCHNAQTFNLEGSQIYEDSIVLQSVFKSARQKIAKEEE
T2 sequence (P51531 with tags, fused parts or gaps isoform P51531-2): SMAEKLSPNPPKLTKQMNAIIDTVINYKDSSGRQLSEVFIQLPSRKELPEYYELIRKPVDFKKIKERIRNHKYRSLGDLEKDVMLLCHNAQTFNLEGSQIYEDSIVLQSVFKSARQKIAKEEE
Sequence of VCB: PROTAC: SMARCA2^BD ternary complex (Homo sapiens, UniProt P40337+P51531) (P51531 with tags, fused parts or gaps isoform P51531-2): as above
Sequence of VCB: PROTAC: SMARCA2^BD ternary complex (Homo sapiens, UniProt P40337+P51531) (P40337 54-213): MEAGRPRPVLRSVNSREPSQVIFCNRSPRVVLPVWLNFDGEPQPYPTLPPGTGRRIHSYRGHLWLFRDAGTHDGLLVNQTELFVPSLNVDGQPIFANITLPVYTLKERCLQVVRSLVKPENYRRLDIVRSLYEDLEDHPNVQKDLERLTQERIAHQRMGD
Sequence of VCB: PROTAC: SMARCA2^BD ternary complex (Homo sapiens, UniProt P40337+P51531) (Q15369 17-112 partner): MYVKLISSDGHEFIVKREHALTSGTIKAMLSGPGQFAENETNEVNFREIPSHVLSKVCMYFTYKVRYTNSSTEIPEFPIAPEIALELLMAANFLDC
Sequence of VCB: PROTAC: SMARCA2^BD ternary complex (Homo sapiens, UniProt P40337+P51531) (Q15370 1-104 partner): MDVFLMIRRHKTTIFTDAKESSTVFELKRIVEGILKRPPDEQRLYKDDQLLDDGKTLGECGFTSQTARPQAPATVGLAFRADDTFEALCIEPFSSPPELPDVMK

## CN1CCN(c2nc(=O)c3c(Cl)cccc3o2)CC1 [R = Cl]
[1]
  Kd: 25 µM

## O=c1nc2n(C3CCCC3)c3cc(C4CCNCC4)ccc3n2c2cccc(Br)c12 [compound 4]
[2]; TR-FRET Ternary SMARCA2BD EC50 (PROTAC + VCB), TR-FRET competition for SMARCA2BD, + VCB, mean ± SD
  EC50: 0.074 µM
[2]; Ternary SMARCA2 BD EC50 (PROTAC + VCB), PROTAC + VCB, individual replicates
  EC50: 0.0735 µM
[3]; Caco-2, pH 7.4, Caco-2, a to b, read-out: Caco-2 Pab
  Papp A→B at 1 µM: 2.55 ×10⁻⁶ cm/s
[3]; Caco-2, pH 7.4, Caco-2, b to a, read-out: Caco-2 Pba
  Papp B→A at 1 µM: 32.6 ×10⁻⁶ cm/s
[3]; Caco-2, pH 7.4, Caco-2, read-out: Caco-2 Efflux ratio
  efflux ratio at 2 h, 1 µM: 12.8
[4]; pH 4.5, aqueous buffer, pH 4.5, read-out: Solubility pH 4.5
  solubility at 24 h: 85 µg/mL (≈ 183 µM)
[4]; pH 6.8, aqueous buffer, pH 6.8, read-out: Solubility pH 6.8
  solubility at 24 h: 79 µg/mL (≈ 170 µM)
[5]; SMARCA2 BD EC50, binary, PROTAC alone, individual replicates
  EC50: 0.0884 µM
[5]; TR-FRET SMARCA2BD EC50, TR-FRET competition for SMARCA2BD, without VCB, mean ± SD
  EC50: 0.088 µM
[6]
  cooperativity α (SMARCA2BD): 1.2
[7]
  Mic. Stab. Human: <24 % QH
  Mic. Stab. Human QH: <24.400%
  Mic. Stab. Mouse: <24 % QH
  Mic. Stab. Mouse QH: 25.670%
  Mic. Stab. Rat: <23 % QH
  Mic. Stab. Rat QH: <23.080%

## CN1CCN(c2nc(=O)c3c(F)cccc3o2)CC1 [R = F]
[1]
  Kd: > 25 µM

## Cc1ncsc1-c1ccc([C@@H](COCCN2CCC(c3ccc4c(c3)n(C3CCCC3)c3nc(=O)c5c(Br)cccc5n43)CC2)NC(=O)[C@@H]2C[C@@H](O)CN2C(=O)[C@@H](NC(=O)C2(F)CC2)C(C)(C)C)cc1 [compound 24]
[4]; pH 4.5
  Solubility pH 4.5: <1.000 <1.000 ug/mL
[4]; pH 6.8
  Solubility pH 6.8: <1.000 <1.000 ug/mL
[7]
  Mic. Stab. Human: 59 ± 0.4 % QH
  Mic. Stab. Human QH: 59.130% and 58.510%
  Mic. Stab. Mouse: 40 ± 2 % QH
  Mic. Stab. Mouse QH: 38.210% and 41.130%
  Mic. Stab. Rat: 31 % QH
  Mic. Stab. Rat QH: < 23.080% and 30.780%

## CN1CCN(c2nc(=O)c3c(I)cccc3o2)CC1 [R = I]
[1]
  Kd: 18 µM

## CN1CCN(c2nc(=O)c3ccccc3o2)CC1 [R = H]
[1]
  Kd: > 25 µM

## CN1CCN(c2nc(=O)c3c(Br)cccc3o2)CC1 [R = Br]
[1]
  Kd: 9 µM
